Assay results: ChEMBL document CHEMBL1132934, “Multivariate data analysis using D-optimal designs, partial least squares, and response surface modeling: A directional approach for the analysis of farnesyltransferase inhibitors” (J Med Chem, 2000)
Each block holds one compound with its values, some of them ahead of it. Active and inactive are the calls of the source. The rule behind the calls is not given here.

Key:
HCT-116 [1] = assay: (§1) […] inhibition of cellular activity in HCT116 colony formation assay; type: functional; details: Homo sapiens
[2] = biological target: T1, Protein farnesyltransferase (Homo sapiens, UniProt P49354+P49356); assay: Inhibition of farnesyltransferase by Ras/SPA assay; type: protein-complex assay
HCT-116 [3] = assay: […] inhibition of cellular activity in HCT116 colony formation assay; AI means almost inactive; type: functional; details: Homo sapiens
[4] = Binding affinity against Ras SPA enzyme
HCT-116 [5] = assay: as §1; type: functional, Homo sapiens
[6] = biological target: T1, Protein farnesyltransferase; assay: Inhibition of Farnesyltransferase; type: protein-complex assay
HCT-116 [7] = assay: […] inhibition of cellular activity in HCT116 colony formation assay; CA means cytostatic activity; type: functional; details: Homo sapiens
[8] = Binding affinity against Ras protein

SMILES: C=C(C(=O)N1C[C@H]2[C@@]3(c4ccccc4)CC[C@H](c4ccccc43)[C@@]2(C(=O)O)C1)c1ccccc1OC (racemic)
- IC50 (HCT-116 [1]): 720 nM
- Ki [2]: 25 nM
- AI (HCT-116 [3]): inactive

SMILES: COc1ccccc1CC(=O)N1C[C@H]2[C@@]3(c4ccccc4)CC[C@H](c4c(O)cccc43)[C@@]2(C(=O)O)C1
- Ki [2]: 50000 nM

SMILES: COc1ccccc1CC(=O)N1C[C@H]2[C@@]3(c4ccccc4)CC[C@H](c4ccccc43)[C@@]2(C(=O)N[C@H](C)c2ccccc2)C1
- Ki [4]: 2080 nM

SMILES: COCCCC(=O)N1C[C@H]2[C@@]3(c4ccccc4)CC[C@H](c4ccccc43)[C@@]2(C(=O)O)C1
- Ki [4]: 100000 nM

SMILES: COc1ccccc1CC(=O)N1C[C@H]2[C@@]3(c4ccccc4)CC[C@H](c4ccccc43)[C@@]2(C(=O)O)C1 (racemic)
- IC50 [6]: 200 nM
- IC50 (HCT-116 [1]): > 10000 nM

SMILES: COc1ccccc1CC(=O)N1C[C@H]2[C@@]3(c4ccccc4)CC[C@H](c4ccccc43)[C@@]2(NC(=O)OCc2ccccc2)C1
- Ki [4]: 100000 nM

SMILES: COc1ccccc1CC(=O)N1C[C@H]2[C@@]3(c4ccccc4)CC[C@H](c4ccccc43)[C@@]2(C(=O)O)C1
- Ki [2]: 140 nM

SMILES: CONC(=O)[C@]12CN(C(=O)Cc3ccccc3OC)C[C@H]1[C@@]1(c3ccccc3)CC[C@@H]2c2ccccc21
- Ki [2]: 420 nM

SMILES: COc1ccccc1CC(=O)N1C[C@@H]2[C@@H]3CC[C@@](c4ccccc4)(c4ccccc43)[C@@H]2C1
- Ki [2]: 40000 nM

SMILES: O=C(Cc1ccccc1OCc1ccccc1)N1C[C@H]2[C@@]3(c4ccccc4)CC[C@H](c4ccccc43)[C@@]2(C(=O)O)C1
- Ki [8]: 32000 nM
- Ki [2]: 32000 nM

SMILES: COc1ccccc1CC(=O)N1C[C@H]2[C@@]3(c4ccccc4)CC[C@](O)(c4ccccc43)[C@@]2(C(=O)O)C1
- Ki [2]: 250 nM

The next lines start with results.

- Ki [2]: 738 nM
SMILES: COc1ccccc1CC(=O)N1C[C@H]2[C@@]3(c4ccccc4)CC[C@H](c4ccccc43)[C@@]2(C(=O)NCC(=O)O)C1

- Ki [2]: 25500 nM
SMILES: C=C(C(=O)N1C[C@H]2[C@@]3(c4ccc(OCC(=O)O)cc4)CC[C@H](c4ccccc43)[C@@]2(C(=O)O)C1)c1ccccc1OC

- IC50 (HCT-116 [5]): 59 nM
SMILES: C=C(C(=O)N1C[C@H]2[C@@]3(c4ccc(Br)cc4)CC[C@H](c4ccccc43)[C@@]2(C(=O)O)C1)c1ccccc1OC

- IC50 [6]: 8 nM
- IC50 (HCT-116 [1]): 45 nM
SMILES: C=C(C(=O)N1C[C@H]2[C@@]3(c4ccc(C)cc4)CC[C@H](c4ccccc43)[C@@]2(C(=O)O)C1)c1ccccc1OC (racemic)
- CA (HCT-116 [7]): cytostatic activity

- Ki [4]: 2450 nM
SMILES: COc1ccccc1CC(=O)N1C[C@H]2[C@@]3(c4ccccc4)CC[C@H](c4ccccc43)[C@@]2(C(=O)NN)C1

- Ki [2]: 420 nM
SMILES: C=C(C(=O)N1C[C@H]2[C@@]3(c4ccc5c(c4)CCO5)CC[C@H](c4ccccc43)[C@@]2(C(=O)O)C1)c1ccccc1OC
